These results are taken from patent US12293809B2, “Workflow for generating compounds with biological activity against a specific biological target” (INSILICO MEDICINE IP LIMITED, priority 2019, dated 2025).

Entries after “also recorded” stand apart in the source; their conditions may differ. Some results are limits rather than exact numbers.

Series [1] has as its target T1, hDDR1 (Homo sapiens, UniProt Q08345). The series is described as follows: KinaseProfiler radiometric biochemical kinase assay (Eurofins). On the set-up: purchased Eurofins 14-942KP10. The conditions noted are these: for IC50: read-out: IC50, inhibition of DDR1 activity. How it is done: The experimental procedures were performed by Eurofins. The activity of the molecules against hDDR1 and hDDR2 kinases was assessed using KinaseProfiler^67. […] The enzymatic reaction processed in the presence of Mg^2+ cations and ATP at room temperature for 40 minutes and terminated by addition of phosphoric acid. […] All the compounds were prepared in 100% DMSO. […] The biological evaluation of selectivity against non-target kinases was performed in Dundee Eurofins, using Scan Max Delta Panel [10 μM ATP] KinaseProfiler^68.

Series [2] is described as follows: Microsomal stability (DLM). How it is done: (§1) Cold acetonitrile (ACN) including 100 ng/mL Tolbutamide and 100 ng/mL Labetalol as internal standard (IS) were used for stop solution. 10 μL compound or control working solution/well was added to all plates (T0, T5, T10, T20, T30, T60, NCF60) except matrix blank. Dispense 80 μL/well microsome solution was added to every plate by Apricot, the mixture of microsome solution and compound were incubated at 37° C. for about 10 min. After pre-warming, dispense 10 μL/well NADPH regenerating system was added to every plate by Apricot to start reaction. The solution was then incubated at 37° C. 300 (μL/well) stop solution (cold in 4° C.) was added to terminate the reaction. The sampling plates were shaken for approximately 10 min. Samples were centrifuged at 4000 rpm for 20 min under 4° C. While centrifuging, 8×new 96-well plate were loaded with 300 μL HPLC water, then 100 μL supernatant was transferred and mixed for LC/MS/MS.

Series [3] can be described thus: Microsomal stability (MLM). On the procedure: as §1
Series [4] deals with collagen α1 production in LX-2 cells. The series is described as follows: LX-2 fibrosis assay, TGF-β stimulated (Western blot). In kind it is cell-based, human. The conditions noted are these: 0.5 to 10 μM. On the procedure: Collagen α1, α-SMA, CTGF and GAPDH were traced using Western blot analysis. DMSO and SB-525334 were used as negative and positive controls, respectively.
Human hepatic stellate cells LX-2 were grown in DMEM (Invitrogen, 11960) supplied with 1% MEM Non-Essential Amino Acids (Invitrogen, 11140-050), 2% fetal bovine serum (Hyclone, SV30087.03), Penicillin (100 U/mL)-streptomycin (100 μg/mL) (Millipore, TMS-AB2-C) and 2 mM L-Glutamine (Invitrogen, 25030-001). After the cells grew in 12-well plates for 24 h, the cell culture medium was changed to the same as above except using 0.4% fetal bovine serum. After 20 h growth in the reduced serum medium, the cells were treated with indicated doses of compounds for 30 minutes. Subsequently, the cells were stimulated with 4 ng/mL TGF-β (R&D Systems, 240-B-002) for 48 h. The cells were rinsed twice with DPBS before being harvested with 100 μL RIPA buffer (Sigma, R0278) supplemented with protease inhibitor cocktail (Roche, 04693132001) at 4° C. The total protein in each sample was quantified using BCA Protein Assay Kit (Pierce™, 23227) and equal amount of total protein of each sample was subject to Western blot analysis. Antibodies used were mouse anti-α-Actin (SPM332) (sc-365970), mouse anti-CTGF (E5) (sc-365970), and mouse anti-collagen al (3G3) (sc-293182), from Santa Cruz Biotechnologies; and mouse anti-GAPDH (6C5) (EMD Millipore, MAB374).
For orientation: In western blotting, separated proteins are transferred to a membrane and probed.

The subject of series [5] is α-actin (α-SMA) production in LX-2 cells. The description is as above. The series is classed as cell-based, human. The conditions noted are these: 0.5 to 10 μM. How it is done:
Collagen α1, α-SMA, CTGF and GAPDH were traced using Western blot analysis.
After 20 h growth in the reduced serum medium, the cells were treated with indicated doses of compounds for 30 minutes.

Series [6] deals with α-actin expression in MRC-5 cells. The series is described as follows: MRC-5 fibrosis assay, TGF-β stimulated (Western blot). In kind it is cell-based. On the procedure: (§2) After 20 h growth in the reduced serum medium, the cells were treated with indicated doses of compounds for 30 minutes. Subsequently, the cells were stimulated with 10 ng/mL TGF-β (R&D Systems, 240-B-002) for 48 or 72 hours.

The test system of series [7] is CTGF expression in MRC-5 cells. The description is as above. The series is classed as cell-based. How it is done: as §2
Series [8] addresses T1, hDDR1. The series is described as follows: Rescreen in another biochemical assay (Thermo Fisher-PR6913A). The conditions noted are these: read-out: IC50 towards DDR1 kinase, rescreen. How it is done:
In the present example, six molecules were generated, selected, and synthesized and were submitted for biological testing (e.g., within 35 days). […] Since the dose-response curves for Compounds 2 and 4 seemed likely inconsistent, additional experiments were performed to confirm the activity of these molecules towards DDR1 kinase (see FIG. 4B). […] Compounds 1 and 2 were also evaluated towards DDR2 kinase.
FIGS. 4A-4B show the structures and dose-response curves for the generated molecules. The six generated compounds were tested in a dose-dependent manner against DDR1 tyrosine kinase.

T1 sequence (Q08345 19-913): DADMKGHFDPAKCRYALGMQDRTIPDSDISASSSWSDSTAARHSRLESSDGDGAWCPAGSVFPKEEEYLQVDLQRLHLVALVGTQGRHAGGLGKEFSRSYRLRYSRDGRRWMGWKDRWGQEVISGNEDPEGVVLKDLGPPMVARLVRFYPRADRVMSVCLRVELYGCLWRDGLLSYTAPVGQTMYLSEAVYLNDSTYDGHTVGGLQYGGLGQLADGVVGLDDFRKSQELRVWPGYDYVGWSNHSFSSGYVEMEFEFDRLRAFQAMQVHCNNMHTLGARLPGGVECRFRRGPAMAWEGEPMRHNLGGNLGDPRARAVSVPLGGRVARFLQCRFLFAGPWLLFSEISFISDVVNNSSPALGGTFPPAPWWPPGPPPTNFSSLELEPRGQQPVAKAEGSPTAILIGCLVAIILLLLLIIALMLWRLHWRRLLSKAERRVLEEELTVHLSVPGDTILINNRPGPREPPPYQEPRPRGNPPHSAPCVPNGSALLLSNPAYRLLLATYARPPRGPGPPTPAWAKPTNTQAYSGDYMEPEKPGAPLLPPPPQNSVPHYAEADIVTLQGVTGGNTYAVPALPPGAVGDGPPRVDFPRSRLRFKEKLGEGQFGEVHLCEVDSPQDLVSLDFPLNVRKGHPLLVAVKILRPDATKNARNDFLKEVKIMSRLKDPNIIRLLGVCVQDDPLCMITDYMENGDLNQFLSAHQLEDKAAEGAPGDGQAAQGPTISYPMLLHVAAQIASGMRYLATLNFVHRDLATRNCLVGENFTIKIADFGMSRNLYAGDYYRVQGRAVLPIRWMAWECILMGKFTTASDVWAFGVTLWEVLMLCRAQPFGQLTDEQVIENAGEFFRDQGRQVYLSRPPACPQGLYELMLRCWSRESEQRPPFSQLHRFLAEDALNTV

`O=C(CN1CCNC2(CCN(C(=O)c3ccc4[nH]ncc4c3)CC2)C1=O)Nc1cccc(F)c1` [Compound 5]: the “activity against DDR1 kinase (in words)” value on hDDR1 [1] is “inactive”.
As usually defined, the CLint scaled is a measure of how fast metabolising enzymes remove a compound, apart from limits set by blood flow. Higher therefore signals faster metabolism. What is called half-life is how long it takes for the measured level to halve. A low value points to rapid decline. As for `C[C@]12CC[C@H]3[C@@H](CCC4=CC(=O)CC[C@@]43C)[C@@H]1CC[C@@H]2O` [Testosterone, testosterone], the CLint scaled in series [2] (Beagle, dog, microsomes) amounted to 114 mL/min/kg; in series [2] (SD, rat, microsomes), 2360 mL/min/kg; in series [2] (human, microsomes) it was 79.7 mL/min/kg; in series [3] (CD-1, mouse, microsomes), 1620 mL/min/kg. In addition, the “Remaining (*NCF = 60 min)” value is 88.6% in series [2] (DLM 0.5, no co-factor); 82.4% in series [2] (HLM 0.5, no co-factor); 86.8% in series [2] (RLM 0.5, no co-factor); 75.4% in series [3] (MLM 0.5, no co-factor). Also, the “Remaining (T = 60 min)” value in series [2] (DLM 0.5, with NADPH) is recorded as 9.5%; in series [2] (HLM 0.5, with NADPH), 6.9%; in series [2] (HLM 0.5, with NADPH, listed as testosterone) it was 6.9%; in series [2] (RLM 0.5, with NADPH), 0.0%; in series [3] (MLM 0.5, with NADPH), 0.0%. This compound had a half-life in series [3] (CD-1, mouse, microsomes) of 3.4 min.
For the compound `Cc1cccc(-c2[nH]c(C(C)(C)C)nc2-c2ccc3nccnc3c2)n1` [SB-525334, reference compound], the “effect on collagen α1 expression” value in series [4] was “strongly inhibited”. Besides, the “effect on α-actin expression” value in series [5] is “strongly inhibited”. In addition, the “reduction in α-actin expression level” value in series [6] (0.5 μM, compared to TGF+DMSO stimulation) amounted to 2 fold. Besides, in series [6] (MRC-5), the “concentration of maximum inhibition of α-actin expression” value was found to be 10 µM and the “dose dependence of effect on α-actin expression” value was “Unclear dose-dependent effect”. Besides, the “effect on CTGF expression” value in series [7] (0.5 μM) is reported as “no effect”. In addition, the “reduction of CTGF expression” value in series [7] (10 μM) came to 1.5 fold.
`Cc1nc(Nc2ncc(C(=O)Nc3c(C)cccc3Cl)s2)cc(N2CCN(CCO)CC2)n1` [Dasatinib, dasatinib]: the “concentration of maximum inhibition of α-actin expression” value in series [6] (MRC-5) came to 10 µM.
Usually IC50 stands for the concentration at which inhibition is half-maximal. With `Cc1cc2[nH]c(-c3cc(CN(C)C)cc(C(F)(F)F)c3)nc2cc1C#Cc1cncnc1` [Compound 4], the IC50 at hDDR1 [1] worked out at 278 nM; at hDDR1 [8], 156 nM.
As to `O=C(O)Cc1ccccc1Nc1c(Cl)cccc1Cl` [Diclofenac, diclofenac], the CLint scaled is below 13.8 mL/min/kg in series [2] (Beagle, dog, microsomes); 106 mL/min/kg in series [2] (SD, rat, microsomes); 117 mL/min/kg in series [2] (human, microsomes). The “Remaining (*NCF = 60 min)” value was determined as 96.9% in series [2] (Beagle, dog, microsomes, 1 h); 89.8% in series [2] (SD, rat, microsomes, 1 h); 87.9% in series [2] (human, microsomes, 1 h); 91.8% in series [3] (CD-1, mouse, microsomes, 1 h). In addition, the “Remaining (T = 60 min)” value in series [2] (Beagle, dog, microsomes, 1 h) is 85.7%; in series [2] (SD, rat, microsomes, 1 h), 17.5%; in series [3] (CD-1, mouse, microsomes, 1 h), 50.2%.
As to `Cc1ccc(CNC(=O)Cc2cccc(F)c2)cc1-c1ccc2[nH]ncc2c1` [Compound 3], on hDDR1 [1], the IC50 is 1000 nM.
As to `Cc1ccc(NC(=O)CN2CCC2C(F)(F)F)cc1NC(=O)c1cnn2c1CCC2` (stereo not shown) [Compound 6], at hDDR1 [1], the “activity against DDR1 kinase (in words)” value is “inactive; also recorded: did not demonstrate any activity”.
